We go through 6 molecules from patent publication US20250241914A1, “BIFUNCTIONAL PHARMACEUTICAL COMPOUNDS” (DE MONTFORT UNIVERSITY, priority 2024, published 2025).

The structures appear in SMILES notation. In brackets after ≈: the same amount, converted by molar mass. Like-named read-outs stand apart in the source and are kept apart here.

One assay has as its system S. aureus NCTC 12493. Nature of the assay: in vitro antistaphylococcal activity, broth microdilution method (MIC/MBC). Format: cell-based, Staphylococcus aureus. As to conditions: for MIC / MBC: Staphylococcus aureus; for MIC: NCTC12493, lowest concentration inhibiting visible growth; for MBC: NCTC12493, lowest concentration reducing viability of inoculum by ≥99.9%, 24 h at 37° C. In general terms: In broth dilution the organism is exposed to a series of concentrations in liquid medium.

The test system of assay [1] is M. tuberculosis HN-878 (wild-type). Briefly: microbe, parasite or virus in culture. Format: cell-based.
The test system of assay [2] is M. tuberculosis H37Rv (ATCC 25618 Wild-type). Nature of the assay: microbe, parasite or virus in culture. Format: cell-based.
The mark [3] stands for this setting: Mycobacterium tuberculosis, 120 h; read-out: Mycobacterium tuberculosis strain MIC90, HN-878.
[4] abbreviates: Mycobacterium tuberculosis, 120 h; read-out: Mycobacterium tuberculosis strain MIC90, H37Rv.

Turning to `CO[C@H]1/C=C/O[C@@]2(C)Oc3c(C)c(O)c4c(O)c(c(CNCCCn5cc(CCn6cc(F)c(=O)[nH]c6=O)nn5)c(O)c4c3C2=O)NC(=O)/C(C)=C\C=C\[C@H](C)[C@H](C)[C@@H](C)[C@@H](O)[C@@H](C)[C@H](OC(C)=O)[C@@H]1C` [Compound 3A], in the assay with S. aureus NCTC 12493, the “MBC value relative to MIC value” was “the same”, the MIC (commonly the lowest concentration that inhibits growth of the organism) was 1 µg/mL (≈ 1.01 µM) and the MBC (usually the smallest concentration meeting the test's criterion for killing) turned out to be 1 µg/mL (≈ 1.01 µM). Also, the MIC90 in assay [1] (setting [3]) was found to be 0.059 ± 0.01 µM (≈ 0.0584 µg/mL). Further, in assay [2] (setting [4]), the MIC90 is 0.0039 µM (≈ 0.00386 µg/mL).
Consider `CO[C@H]1/C=C/O[C@@]2(C)Oc3c(C)c(O)c4c(O)c(c(CNCCOCCOCCOCn5cc(CCn6cc(F)c(=O)[nH]c6=O)nn5)c(O)c4c3C2=O)NC(=O)/C(C)=C\C=C\[C@H](C)[C@H](C)[C@@H](C)[C@@H](O)[C@@H](C)[C@H](OC(C)=O)[C@@H]1C` [Compound 3B], for which, in the assay on S. aureus NCTC 12493, the “MBC value relative to MIC value” is listed as “the same”, the lowest concentration to inhibit growth (MIC) was 2 µg/mL (≈ 1.83 µM) and the MBC was determined as 2 µg/mL (≈ 1.83 µM). In addition, the MIC90 in assay [1] (setting [3]) was 0.096 ± 0.064 µM (≈ 0.105 µg/mL). In addition, in assay [2] (setting [4]), the MIC90 worked out at 0.0039 µM (≈ 0.00427 µg/mL).
Turning to `CO[C@H]1/C=C/O[C@@]2(C)Oc3c(C)c(O)c4c(O)c(c(CNCCOCCOCCOCn5cc(CCCn6cc(F)c(=O)[nH]c6=O)nn5)c(O)c4c3C2=O)NC(=O)/C(C)=C\C=C\[C@H](C)[C@H](C)[C@@H](C)[C@@H](O)[C@@H](C)[C@H](OC(C)=O)[C@@H]1C` [Compound 3C], the MIC90 is 0.07 ± 0.042 µM (≈ 0.0776 µg/mL) in assay [1] (setting [3]) and 0.0034 µM (≈ 0.00377 µg/mL) in assay [2] (setting [4]).
Consider `O=c1[nH]cc(F)c(=O)[nH]1` [Compound 5-FU, 5-Fluorouracil, reference compound], for which, in the assay on S. aureus NCTC 12493, the “MBC value relative to MIC value” was determined as 8 times, the MIC was 2 µg/mL (≈ 15.4 µM) and the MBC is 16 µg/mL (≈ 123 µM).
For the molecule `NNC(=O)c1ccncc1` [Isoniazid, reference compound], the MIC90 came out at 0.29 µM (≈ 0.0398 µg/mL) in assay [1] (setting [3]) and 0.28 µM (≈ 0.0384 µg/mL) in assay [2] (setting [4]).
As to `CO[C@H]1/C=C/O[C@@]2(C)Oc3c(C)c(O)c4c(O)c(c(/C=N/N5CCN(C)CC5)c(O)c4c3C2=O)NC(=O)/C(C)=C\C=C\[C@H](C)[C@H](O)[C@@H](C)[C@@H](O)[C@@H](C)[C@H](OC(C)=O)[C@@H]1C` [Rifampicin, reference compound], in the assay with S. aureus NCTC 12493, the “MBC value relative to MIC value” worked out at 16 times, the MIC is 0.25 µg/mL (≈ 0.304 µM) and the MBC was determined as 4 µg/mL (≈ 4.86 µM). The MIC90 in assay [1] (Mycobacterium tuberculosis, 120 h, read-out: Mycobacterium tuberculosis strain MIC90, HN-878) is 0.02 µM (≈ 0.0165 µg/mL). For the same molecule, the MIC90 in assay [2] (Mycobacterium tuberculosis, 120 h, read-out: Mycobacterium tuberculosis strain MIC90, H37Rv) was determined as 0.0045 µM (≈ 0.0037 µg/mL).
